Here are results for 26 molecules from patent publication US4861778A, “2,3-dihydrophthalazine-1,4-diones” (priority 1986, dated 1989).

The assay has as its system serum cholesterol and serum triglyceride. The assay is described as follows: Hypolipidemic activity of 2,3-dihydrophthalazine-1,4-diones in normal male mice (Example 11, Table II). In kind it is in vivo, CF1 male mice. The note with it: Mus musculus, ip. How it is done: Hypolipidemic Activity of 2,3-Dihydrophthalazine-1,4-Diones in Normal Male Mice
Each of the prepared compounds was administered intraperitoneally, in a dosage of 20 milligrams per kilogram of body weight per day, to a group of six CF1 male mice, each weighing approximately 25 grams, for 16 days. On Days 9 and 16 blood was obtained from each of the tested mice by tail vein bleeding. The blood serum so obtained was separated by centrifugation for three minutes. […] Serum triglyceride levels were obtained on Day 16 by use of the Bio-Dynamics/bm Triglyceride Kit.
In addition to the above-described treated mice, an untreated control group of six mice were similarly tested on Days 9 and 16 to determine their serum cholesterol and serum triglyceride blood levels.

Where [1] appears, read: 216 h, CF1 male mice, 20 mg/kg/day intraperitoneally, Day 9, read-out: Serum Cholesterol Day 9, percent control ± standard deviation.
Where [2] appears, read: 384 h, CF1 male mice, 20 mg/kg/day intraperitoneally, Day 16, read-out: Serum Cholesterol Day 16, percent control ± standard deviation.
The mark [3] stands for this setting: 384 h, CF1 male mice, 20 mg/kg/day intraperitoneally, Day 16, read-out: Serum Triglyceride Day 16, percent control ± standard deviation.

SMILES strings stand for the structures. Where two headings read alike, the source gives them in different places.

`Cn1nc(O)c2ccccc2c1=O` [Compound 2]: the response vs control in vivo at 20 mg/kg/day under setting [1] stood at 72 ± 5%, the response vs control in vivo at 20 mg/kg/day under setting [2] was 77 ± 3% and the response vs control in vivo at 20 mg/kg/day under setting [3] is 66 ± 4%.
In the case of `COc1nn(C)c(=O)c2ccccc12` [Compound 3, 2-Methyl-4-Methoxyphthalazine-1(2H)-One], the response vs control in vivo at 20 mg/kg/day by setting is: under setting [1], 84 ± 6%; under setting [2], 81 ± 5%; under setting [3], 64 ± 5%.
On to `CCn1[nH]c(=O)c2ccccc2c1=O` [Compound 4, 2-Ethyl-2,3-Dihydrophthalazine-1,4-Dione], for which the response vs control in vivo at 20 mg/kg/day under setting [1] is 71 ± 7%, the response vs control in vivo at 20 mg/kg/day under setting [2] is 58 ± 5% and the response vs control in vivo at 20 mg/kg/day under setting [3] was found to be 59 ± 4%.
Taken in the same sequence, the figures for `CCOc1nn(CC)c(=O)c2ccccc12` [Compound 5] were 77 ± 5%, 76 ± 4% and 57 ± 3%.
On to `CCCn1[nH]c(=O)c2ccccc2c1=O` [Compound 6, 2-n-propyl-2,3-dihydrophthalazine-1,4-dione], for which the response vs control in vivo at 20 mg/kg/day runs as follows: under setting [1], 77 ± 6%; under setting [2], 68 ± 5%; under setting [3], 62 ± 2%.
As to `CCCOc1nn(CCC)c(=O)c2ccccc12` [Compound 7], the response vs control in vivo at 20 mg/kg/day is, setting by setting: under setting [1], 68 ± 3%; under setting [2], 69 ± 5%; under setting [3], 69 ± 2%.
Take `CCCCn1[nH]c(=O)c2ccccc2c1=O` [Compound 8, 2-n-butyl-2,3-dihydrophthalazine-1,4-dione]: the response vs control in vivo at 20 mg/kg/day stood at 59 ± 2% under setting [1], 58 ± 3% under setting [2] and 73 ± 4% under setting [3].
For `CCCCOc1nn(CCCC)c(=O)c2ccccc12` [Compound 9], the response vs control in vivo at 20 mg/kg/day under setting [1] amounted to 65 ± 4%, the response vs control in vivo at 20 mg/kg/day under setting [2] was determined as 61 ± 3% and the response vs control in vivo at 20 mg/kg/day under setting [3] was 66 ± 3%.
Take `CCCCCn1nc(O)c2ccccc2c1=O` [Compound 10]: the response vs control in vivo at 20 mg/kg/day turned out to be 74 ± 3% under setting [1], 71 ± 5% under setting [2] and 55 ± 4% under setting [3].
Turning to `CCCCCOc1nn(CCCCC)c(=O)c2ccccc12` [Compound 11], the response vs control in vivo at 20 mg/kg/day is, setting by setting: under setting [1], 86 ± 6%; under setting [2], 63 ± 4%; under setting [3], 59 ± 3%.
As for `O=c1[nH][nH]c(=O)c2c(Cl)cccc12` [Compound 12, 5-Chloro-2,3-Dihydrophthalazine-1,4-Dione], the response vs control in vivo at 20 mg/kg/day by setting is: under setting [1], 72 ± 5%; under setting [2], 69 ± 4%; under setting [3], 86 ± 5%.
Taken in the same sequence, the figures for `O=c1[nH]nc(O)c2cc(Cl)ccc12` [Compound 13] were 72 ± 4%, 64 ± 5% and 65 ± 4%.
For `Cc1cccc2c(=O)[nH]nc(O)c12` [Compound 14], the response vs control in vivo at 20 mg/kg/day is, setting by setting: under setting [1], 80 ± 4%; under setting [2], 75 ± 3%; under setting [3], 73 ± 3%.
For `Cc1ccc2c(=O)[nH][nH]c(=O)c2c1` [Compound 15, 6-methyl-2,3-dihydrophthalazine-1,4-dione], the response vs control in vivo at 20 mg/kg/day came out at 66 ± 8% under setting [1], 55 ± 4% under setting [2] and 54 ± 4% under setting [3].
For `COc1cccc2c(=O)[nH]nc(O)c12` [Compound 16], the response vs control in vivo at 20 mg/kg/day reads like this: under setting [1], 82 ± 5%; under setting [2], 78 ± 3%; under setting [3], 81 ± 4%.
Take `COc1ccc2c(=O)[nH]nc(O)c2c1` [Compound 17]: the response vs control in vivo at 20 mg/kg/day worked out at 77 ± 5% under setting [1], 76 ± 4% under setting [2] and 69 ± 3% under setting [3].
Take `O=C(O)CCn1[nH]c(=O)c2ccccc2c1=O` [Compound 18, 2-(2'-Carboxyethyl)-2,3-Dihydrophthalazine-1,4-Dione]: the response vs control in vivo at 20 mg/kg/day is, setting by setting: under setting [1], 54 ± 6%; under setting [2], 34 ± 3%; under setting [3], 60 ± 4%.
`CCOC(=O)Cn1[nH]c(=O)c2ccccc2c1=O` [Compound 19, 2-(1'-Carbethoxymethyl)-2,3-Dihydrophthalazine-1,4-Dione]: the response vs control in vivo at 20 mg/kg/day under setting [1] is 78 ± 6%, the response vs control in vivo at 20 mg/kg/day under setting [2] was found to be 69 ± 5% and the response vs control in vivo at 20 mg/kg/day under setting [3] worked out at 73 ± 4%.
Regarding `CC(=O)CCn1[nH]c(=O)c2ccccc2c1=O` [Compound 20, 2-(3'-Oxobutyl)-2,3-Dihydrophthalazine-1,4-Dione], the response vs control in vivo at 20 mg/kg/day under setting [1] was determined as 72 ± 6%, the response vs control in vivo at 20 mg/kg/day under setting [2] came to 59 ± 3% and the response vs control in vivo at 20 mg/kg/day under setting [3] is 70 ± 7%.
In the case of `O=c1[nH]n(-c2ccccc2)c(=O)c2ccccc12` [Compound 21, 2-Phenyl-2,3-Dihydrophthalazine-1,4-Dione], the response vs control in vivo at 20 mg/kg/day by setting is: (216 h, read-out: Serum Cholesterol Day 9, percent control ± standard deviation) 59 ± 5%; (384 h, read-out: Serum Cholesterol Day 16, percent control ± standard deviation) 58 ± 4%; (384 h, read-out: Serum Triglyceride Day 16, percent control ± standard deviation) 65 ± 3%.
On to `O=c1c2ccccc2c(O)nn1-c1ccccc1Cl` [Compound 22], for which the response vs control in vivo at 20 mg/kg/day under setting [1] worked out at 72 ± 5%, the response vs control in vivo at 20 mg/kg/day under setting [2] came out at 67 ± 3% and the response vs control in vivo at 20 mg/kg/day under setting [3] worked out at 68 ± 4%.
On to `O=c1c2ccccc2c(O)nn1-c1cccc(Cl)c1` [Compound 23], for which the response vs control in vivo at 20 mg/kg/day runs as follows: under setting [1], 73 ± 4%; under setting [2], 62 ± 3%; under setting [3], 69 ± 5%.
Taken in the same sequence, the figures for `O=c1[nH]n(-c2ccc(Cl)cc2)c(=O)c2ccccc12` [Compound 24, 2-(4'-chlorophenyl)-2,3-dihydrophthalazine-1,4-dione] were 60 ± 3%, 54 ± 4% and 59 ± 5%.
With `Cc1ccccc1-n1nc(O)c2ccccc2c1=O` [Compound 25], the response vs control in vivo at 20 mg/kg/day is, setting by setting: under setting [1], 82 ± 7%; under setting [2], 66 ± 5%; under setting [3], 76 ± 6%.
Regarding `Cc1cccc(-n2nc(O)c3ccccc3c2=O)c1` [Compound 26], the response vs control in vivo at 20 mg/kg/day is, setting by setting: under setting [1], 87 ± 6%; under setting [2], 74 ± 4%; under setting [3], 65 ± 3%.
As for `Cc1ccc(-n2nc(O)c3ccccc3c2=O)cc1` [Compound 27], the response vs control in vivo at 20 mg/kg/day is, setting by setting: under setting [1], 89 ± 5%; under setting [2], 73 ± 6%; under setting [3], 57 ± 2%.
